The mortality is the share of the test organisms that died.

Data set [1] deals with adult, female insects of the Musca domestica species. Put plainly: whole plant or invertebrate. Particulars: for Mortality: compound 1.25% w/v + tetramethrin 0.25% w/v in acetone; for synergist activity in respect of the tetramethrin: summary of Table 1, comparison with PBO. The class given is in vivo. On the procedure:
After having mixed the products of Examples 1-4 with tetramethrin in acetone respectively at a concentration of 1.25% for the products of examples 1-4 and of 0.25% for the tetramethrin, 0.5 μl of acetone solution was applied to adult, female insects of the Musca domestica species, on the rear part of the pectoral region. The insect was then transferred to a closed plastic container approximately 12 cm in diameter and 6 cm in height and left at 25° C. with supply of 5% sugar solution. After 24 hours the alive and dead flies were examined to determine the percentage mortality. The total number of flies per container was equal to 20 and the test was repeated three times. For comparison acetone solutions at the same concentrations as previously indicated for the compounds of examples 1-4 and for tetramethrin alone were prepared.
For comparison an acetone solution at an equal concentration of piperonyl butoxide and tetramethrin and an acetone solution at the same concentration of piperonyl butoxide alone were also prepared.

In another data set the test system is Blattella germanica. Put plainly: Mortality test on beetles, treated glass plates with chloropyriphos or propoxur. It is filed as in vivo. Particulars: 24 hours exposure; for Mortalità 1gg: 1 day from application; for Mortalità 3gg: 3 days from application. On the procedure: Solutions of products of examples 1 and 3 in acetone and, for comparison, of piperonyl butoxide, with the organic phosphorus compound chloropyriphos and with carbamate compound propoxur, were applied from a distance of 12 cm on glass plates (model Ostra, 15×15 cm=225 square cm) by means of a suitable glass sprayer so as to obtain an applied amount of organic phosphorous compound equal to 33 mg/square m and of carbamate equal to 500 mg/mq. The products of examples 1 e 3 and the comparison compound PBO were in a weight ratio of 5:1 w/w with respect to the organic phosphorous compound and to the carbamate.
In the same way acetone solutions of organic phosphorous compound and of carbamate compound were prepared so as to obtain an applied amount of organic phosphorous compound equal to 33 mg/square m and of carbamate compound equal to 500 mg/mq. After the application the plates were transferred to a closed test room under controlled temperature and humidity (24-25° C., RH 50-60%). Glass rings (h 5.5 cm×diameter 9.5 cm), having internal surface treated with talc and each one containing 5 beetles—Blattella germanica—were placed in the centre of the plates. They were evaluated each one after 1 day and three days from the application. For each day, the insects were maintained on the surface for 24 hours.

Setting [2] is: Musca domestica, compound alone 1.25% w/v in acetone, tetramethrin 0, 0.5 μl topical, after 24 hours, read-out: Mortality.
Where [3] appears, read: product 165 mg/sm + chloropyriphos 33 mg/sm.
Setting [4] is: product 2500 mg/sm + propoxur 500 mg/sm.

SMILES strings stand for the structures. Where two headings read alike, the source gives them in different places.

`CC(C)=CC1C(C(=O)OCN2C(=O)C3=C(CCCC3)C2=O)C1(C)C` (stereo not shown) [tetramethrin, reference compound] showed a mortality at 0.25 % strength in data set [1] (Musca domestica, topical, 24 h) of 20%.

As for `CNC(=O)Oc1ccccc1OC(C)C` [Propoxur, propoxur, reference compound], in the data set with Blattella germanica (propoxur alone 500 mg/sm), the “Mortalità 1gg” value is given as 20% and the “Mortalità 3gg” value was 31%.

Consider `CCCCCCCCc1cc2c(cc1COCCOCCOCCCC)OCO2` [Ex. 1, 5-[2-(2-butoxyethoxy)-ethoxymethyl]-6-n-octyl-1,3-benzodioxole], for which, in data set [1] (setting [2]), the mortality at 1.25 % strength was 0%. Also, the Mortality in data set [1] (0.5 μl topical, after 24 hours) is reported as 100%. For the same compound, in data set [1], the “synergist activity in respect of the tetramethrin” value was “most active as synergists”. For the same compound, in the data set with Blattella germanica (setting [3]), the “Mortalità 1gg” value stood at 62% and the “Mortalità 3gg” value is on record as 85%. In the data set on Blattella germanica (setting [4]), the “Mortalità 1gg” value was 48% and the “Mortalità 3gg” value came out at 60%.

For the compound `CCCCCCCCCCc1cc2c(cc1COCCOCCOCCCC)OCO2` [Ex. 4, 5-[2-(2-Butoxyethoxy)-ethoxymethyl]-6-n-decyl-1,3-benzodioxole], the mortality at 1.25 % strength in data set [1] (setting [2]) stood at 0%. The Mortality in data set [1] (0.5 μl topical, after 24 hours) is on record as 80%.

With `CCCCCCc1cc2c(cc1COCCOCCOCCCC)OCO2` [Ex. 3, 5-[2-(2-Butoxy-ethoxy)-ethoxymethyl]-6-n-hexyl-1,3-benzodioxole], the mortality at 1.25 % strength in data set [1] (setting [2]) was determined as 0%. Further, the Mortality in data set [1] (0.5 μl topical, after 24 hours) is 100%. Further, in data set [1], the “synergist activity in respect of the tetramethrin” value is listed as “most active as synergists”. Besides, in the data set on Blattella germanica (setting [3]), the “Mortalità 1gg” value was 60% and the “Mortalità 3gg” value was 80%. In the data set on Blattella germanica (setting [4]), the “Mortalità 1gg” value is given as 44% and the “Mortalità 3gg” value is listed as 56%.

`CCCCOCCOCCOCc1cc2c(cc1CCC)OCO2` [PBO, 5-[2-(2-butoxyethoxy)-ethoxymethyl]6-propyl-1,3-benzodioxole, reference compound] yielded a mortality at 1.25 % strength in data set [1] (Musca domestica, topical, 24 h) of 0%. In the data set with Blattella germanica (setting [3]), the “Mortalità 1gg” value came to 45% and the “Mortalità 3gg” value is recorded as 65%. Further, in the data set with Blattella germanica (setting [4]), the “Mortalità 1gg” value was 35% and the “Mortalità 3gg” value is 42%.

In the case of `CCCCOCCOCCOCc1cc2c(cc1CCCC)OCO2` [Ex. 2, 5-[2-(2-butoxyethoxy)-ethoxymethyl]-6-n-butyl-1,3-benzodioxole], the mortality at 1.25 % strength in data set [1] (setting [2]) was determined as 0%. Further, the Mortality in data set [1] (0.5 μl topical, after 24 hours) came to 80%.

For the compound `CCOP(=S)(OCC)Oc1nc(Cl)c(Cl)cc1Cl` [Chloropyriphos, chloropyriphos, reference compound], in the data set with Blattella germanica (chloropyriphos alone 33 mg/sm), the “Mortalità 1gg” value is given as 32% and the “Mortalità 3gg” value is 48%.
